Values belong to the compound of their own block, whether it stands above or below them. Active and inactive are the calls of the source.
How the values were obtained:
[1] = biological target: T1, Short transient receptor potential channel 4 (Mus musculus, UniProt Q9QUQ5); test: calcium entry via TRPC4 opening agents – cell-based, HEK293 TRPC4/mu-opioid, Fluo-4 calcium, dose response (AID 434937); format: functional
T1 sequence (Q9QUQ5 whole entry): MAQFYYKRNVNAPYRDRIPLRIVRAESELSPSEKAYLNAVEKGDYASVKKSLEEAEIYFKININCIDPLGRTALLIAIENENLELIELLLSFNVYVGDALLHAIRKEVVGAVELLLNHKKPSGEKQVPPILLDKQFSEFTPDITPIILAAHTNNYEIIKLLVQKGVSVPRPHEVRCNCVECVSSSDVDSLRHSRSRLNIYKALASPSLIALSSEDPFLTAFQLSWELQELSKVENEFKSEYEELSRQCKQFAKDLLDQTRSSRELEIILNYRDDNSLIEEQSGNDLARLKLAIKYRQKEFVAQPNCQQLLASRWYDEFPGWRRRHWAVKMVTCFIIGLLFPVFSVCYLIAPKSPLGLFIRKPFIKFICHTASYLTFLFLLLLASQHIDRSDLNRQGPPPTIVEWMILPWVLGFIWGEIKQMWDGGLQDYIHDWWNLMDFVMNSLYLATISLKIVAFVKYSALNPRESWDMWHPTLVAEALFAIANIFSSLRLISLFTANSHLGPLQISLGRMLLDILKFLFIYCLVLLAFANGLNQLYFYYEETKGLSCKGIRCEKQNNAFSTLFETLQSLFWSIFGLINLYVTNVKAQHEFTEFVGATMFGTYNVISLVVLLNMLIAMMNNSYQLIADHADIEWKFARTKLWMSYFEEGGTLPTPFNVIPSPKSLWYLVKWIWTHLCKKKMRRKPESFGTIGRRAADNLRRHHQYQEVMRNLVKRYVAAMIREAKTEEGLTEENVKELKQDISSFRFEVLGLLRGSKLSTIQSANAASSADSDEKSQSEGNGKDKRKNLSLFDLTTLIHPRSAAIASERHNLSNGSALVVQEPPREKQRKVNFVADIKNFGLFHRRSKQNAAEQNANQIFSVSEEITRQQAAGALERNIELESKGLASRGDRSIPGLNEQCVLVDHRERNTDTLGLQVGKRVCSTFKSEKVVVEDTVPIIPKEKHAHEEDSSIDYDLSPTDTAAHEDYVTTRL

[2] = biological target: Delta-type opioid receptor (Homo sapiens, UniProt P41143); test: Counterscreen for agonists of heterodimerization of the mu 1 (OPRM1) and delta 1 (OPRD1) opioid receptors: Luminescence-based cell-based high throughput dose response assay to identify agonists of OPRD1 homodimerization. [Related pubchem assays (depositor defined):AID504326, AID504355, AID504692, AID504904, AID504905]; format: functional
Mu-type opioid receptor = Mu-type opioid receptor (Homo sapiens, UniProt P35372); test: Counterscreen for agonists of heterodimerization of the mu 1 (OPRM1) and delta 1 (OPRD1) opioid receptors: Luminescence-based cell-based high throughput dose response assay to identify agonists of OPRM1 homodimerization.; format: functional;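 also: U2OS cells expressing OPRM1 and beta-arrestin as split beta-galactosidase partners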
[3] = biological target: 5-hydroxytryptamine receptor 5A (Homo sapiens, UniProt P47898); test: Counterscreen for agonists of OPRM1-OPRD1 heterodimerization: luminescence-based cell-based high throughput dose response assay to identify agonists of 5-hydroxytryptamine (serotonin) 5A receptor (HTR5A). [Related pubchem assays (depositor defined):AID504326, AID504355, AID504692, AID504904, AID504905]; format: functional
Beta-galactosidase = Beta-galactosidase (Escherichia coli, UniProt Q8VNN2); test: PubChem AID 485352; format: functional
[4] = biological target: Type-1 angiotensin II receptor (Homo sapiens, UniProt P30556); test: antagonism of angiotensin II type 1 receptor – cell-based, uHTS hits, selectivity assay for APJ receptor antagonist project, dose response (AID 463214); format: functional;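 also: antagonist potency against angiotensin II stimulated AT1 response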
Vero = test: viability of Vero cells under compound – cytotoxicity control for flavivirus capping enzyme inhibitors (AID 588742); format: functional; details: Chlorocebus sabaeus
Genome polyprotein = Genome polyprotein (dengue virus type 2, UniProt P29990); test: flavivirus cap methylation enzyme inhibition – biochemical, confirmation dose response, primary screen (AID 588689); format: functional
[5] = biological target: Photoreceptor-specific nuclear receptor (Homo sapiens, UniProt Q9Y5X4); format: functional, cell-based;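 also: CHO-S cells with Gal4-NCOR and VP16-NR2E3 two-hybrid luciferase reporter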
[6] = biological target: T1, Short transient receptor potential channel 4; test: block of DAMGO-driven TRPC4 calcium entry – cell-based, HEK293 TRPC4/mu-opioid, Fluo-4 calcium, dose response (AID 434942); format: functional;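 also: potency of inhibitors blocking the TRPC4 calcium response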
Escherichia coli [7] = test: microbe, parasite or virus in culture
Escherichia coli [8] = test: microbe, parasite or virus in culture; remark: listed apart in the source
[9] = biological target: Voltage-gated inwardly rectifying potassium channel KCNH2 (Homo sapiens, UniProt Q12809); details: Potency;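 also: confirmatory quantitative high-throughput screen measuring inhibition of hERG channel activity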
Voltage-gated inwardly rectifying potassium channel KCNH2, sequence (Q12809 whole entry): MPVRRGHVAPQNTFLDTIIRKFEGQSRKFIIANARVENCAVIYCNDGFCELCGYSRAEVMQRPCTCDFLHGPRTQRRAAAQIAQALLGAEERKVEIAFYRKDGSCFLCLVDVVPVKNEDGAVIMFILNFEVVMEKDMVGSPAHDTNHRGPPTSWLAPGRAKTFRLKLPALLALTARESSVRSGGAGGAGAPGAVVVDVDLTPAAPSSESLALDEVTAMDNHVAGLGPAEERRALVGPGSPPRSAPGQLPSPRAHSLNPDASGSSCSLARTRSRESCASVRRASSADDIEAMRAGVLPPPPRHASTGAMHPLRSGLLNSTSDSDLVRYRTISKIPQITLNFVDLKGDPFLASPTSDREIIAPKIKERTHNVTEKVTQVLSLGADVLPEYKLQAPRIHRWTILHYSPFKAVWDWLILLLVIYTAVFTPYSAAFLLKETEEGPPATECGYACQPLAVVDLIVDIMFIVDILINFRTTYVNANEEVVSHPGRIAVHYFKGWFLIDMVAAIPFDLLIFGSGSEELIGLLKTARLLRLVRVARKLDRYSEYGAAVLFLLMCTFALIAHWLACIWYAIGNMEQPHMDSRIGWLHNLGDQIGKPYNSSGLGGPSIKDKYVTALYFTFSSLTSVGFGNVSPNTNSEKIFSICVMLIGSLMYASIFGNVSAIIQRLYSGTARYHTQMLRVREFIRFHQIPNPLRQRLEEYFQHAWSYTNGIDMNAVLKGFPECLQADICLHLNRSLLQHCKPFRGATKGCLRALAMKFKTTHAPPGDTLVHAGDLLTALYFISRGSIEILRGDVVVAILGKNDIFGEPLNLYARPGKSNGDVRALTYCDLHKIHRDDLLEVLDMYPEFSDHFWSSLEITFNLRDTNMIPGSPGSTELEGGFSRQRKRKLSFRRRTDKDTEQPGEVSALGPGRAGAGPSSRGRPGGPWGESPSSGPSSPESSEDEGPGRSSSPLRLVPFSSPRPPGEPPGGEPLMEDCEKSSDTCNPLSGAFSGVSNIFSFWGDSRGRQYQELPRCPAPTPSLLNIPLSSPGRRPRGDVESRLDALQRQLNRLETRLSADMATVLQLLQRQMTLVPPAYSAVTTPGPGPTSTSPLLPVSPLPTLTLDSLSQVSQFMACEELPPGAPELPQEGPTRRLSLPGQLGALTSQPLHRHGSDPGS

Beta-galactosidase, sequence (Q8VNN2 whole entry): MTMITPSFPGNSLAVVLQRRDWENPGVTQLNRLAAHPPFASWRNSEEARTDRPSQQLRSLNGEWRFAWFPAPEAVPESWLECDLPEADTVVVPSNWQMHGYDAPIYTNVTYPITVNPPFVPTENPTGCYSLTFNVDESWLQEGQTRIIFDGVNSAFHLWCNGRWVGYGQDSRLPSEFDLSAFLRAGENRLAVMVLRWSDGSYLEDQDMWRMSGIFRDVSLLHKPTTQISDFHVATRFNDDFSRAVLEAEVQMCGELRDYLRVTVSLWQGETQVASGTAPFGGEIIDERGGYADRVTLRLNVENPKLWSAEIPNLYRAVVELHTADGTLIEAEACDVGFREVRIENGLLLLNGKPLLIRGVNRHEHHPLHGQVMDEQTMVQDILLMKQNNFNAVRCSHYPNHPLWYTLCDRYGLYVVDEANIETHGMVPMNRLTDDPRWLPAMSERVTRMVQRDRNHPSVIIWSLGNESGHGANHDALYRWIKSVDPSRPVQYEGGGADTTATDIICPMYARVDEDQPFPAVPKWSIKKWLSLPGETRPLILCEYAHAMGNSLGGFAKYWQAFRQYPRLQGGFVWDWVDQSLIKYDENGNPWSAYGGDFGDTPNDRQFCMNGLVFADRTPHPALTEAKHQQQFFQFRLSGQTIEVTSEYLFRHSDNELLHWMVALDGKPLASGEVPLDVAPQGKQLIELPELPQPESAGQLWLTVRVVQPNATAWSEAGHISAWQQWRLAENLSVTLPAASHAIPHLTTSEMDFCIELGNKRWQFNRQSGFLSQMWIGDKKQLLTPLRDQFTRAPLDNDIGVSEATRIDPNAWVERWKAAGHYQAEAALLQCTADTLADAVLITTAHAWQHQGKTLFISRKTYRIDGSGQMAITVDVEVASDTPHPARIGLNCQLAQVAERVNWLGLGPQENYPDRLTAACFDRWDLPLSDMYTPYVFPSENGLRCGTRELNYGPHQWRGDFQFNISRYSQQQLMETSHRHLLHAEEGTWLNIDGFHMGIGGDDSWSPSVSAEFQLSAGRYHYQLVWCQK
Type-1 angiotensin II receptor, sequence (P30556 whole entry): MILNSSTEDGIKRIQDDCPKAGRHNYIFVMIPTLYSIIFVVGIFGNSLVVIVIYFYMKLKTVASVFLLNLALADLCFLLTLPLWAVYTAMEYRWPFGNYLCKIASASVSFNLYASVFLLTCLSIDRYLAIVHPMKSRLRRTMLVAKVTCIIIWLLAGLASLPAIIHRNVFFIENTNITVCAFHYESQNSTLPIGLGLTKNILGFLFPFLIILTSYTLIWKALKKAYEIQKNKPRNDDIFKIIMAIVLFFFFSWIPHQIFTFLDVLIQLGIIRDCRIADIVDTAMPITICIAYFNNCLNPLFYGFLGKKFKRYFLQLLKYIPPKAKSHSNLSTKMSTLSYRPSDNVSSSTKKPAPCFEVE
Photoreceptor-specific nuclear receptor, sequence (Q9Y5X4 whole entry, the tested form may be a part): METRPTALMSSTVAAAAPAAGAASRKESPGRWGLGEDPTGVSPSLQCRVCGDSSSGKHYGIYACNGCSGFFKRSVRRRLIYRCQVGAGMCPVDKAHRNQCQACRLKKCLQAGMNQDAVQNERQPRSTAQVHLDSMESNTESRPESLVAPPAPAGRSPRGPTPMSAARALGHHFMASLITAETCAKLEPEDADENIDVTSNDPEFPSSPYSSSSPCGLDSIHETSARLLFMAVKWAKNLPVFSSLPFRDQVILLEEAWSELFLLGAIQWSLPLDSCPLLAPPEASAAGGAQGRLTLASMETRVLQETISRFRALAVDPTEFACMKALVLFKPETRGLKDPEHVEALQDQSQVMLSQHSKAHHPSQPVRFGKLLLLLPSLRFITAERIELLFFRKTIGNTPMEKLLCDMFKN
Delta-type opioid receptor, sequence (P41143 whole entry): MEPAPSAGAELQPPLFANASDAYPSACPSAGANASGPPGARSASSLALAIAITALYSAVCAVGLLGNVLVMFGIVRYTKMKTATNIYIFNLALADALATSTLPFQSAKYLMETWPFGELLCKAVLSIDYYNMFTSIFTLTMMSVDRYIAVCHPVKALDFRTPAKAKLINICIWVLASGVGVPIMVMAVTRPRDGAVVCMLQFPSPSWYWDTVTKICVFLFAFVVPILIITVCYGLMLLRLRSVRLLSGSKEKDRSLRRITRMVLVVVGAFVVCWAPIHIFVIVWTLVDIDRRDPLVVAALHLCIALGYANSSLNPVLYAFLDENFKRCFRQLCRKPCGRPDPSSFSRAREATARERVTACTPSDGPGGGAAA
5-hydroxytryptamine receptor 5A, sequence (P47898 whole entry): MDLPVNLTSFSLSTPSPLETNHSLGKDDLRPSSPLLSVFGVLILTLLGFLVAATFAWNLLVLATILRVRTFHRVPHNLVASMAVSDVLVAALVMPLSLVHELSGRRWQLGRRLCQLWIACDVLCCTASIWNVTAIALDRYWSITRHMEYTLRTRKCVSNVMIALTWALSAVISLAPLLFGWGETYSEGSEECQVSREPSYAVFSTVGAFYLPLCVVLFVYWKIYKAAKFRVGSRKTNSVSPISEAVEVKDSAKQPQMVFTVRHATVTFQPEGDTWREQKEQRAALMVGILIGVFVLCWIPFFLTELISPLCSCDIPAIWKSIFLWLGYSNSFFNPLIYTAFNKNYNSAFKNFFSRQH
Mu-type opioid receptor, sequence (P35372 whole entry): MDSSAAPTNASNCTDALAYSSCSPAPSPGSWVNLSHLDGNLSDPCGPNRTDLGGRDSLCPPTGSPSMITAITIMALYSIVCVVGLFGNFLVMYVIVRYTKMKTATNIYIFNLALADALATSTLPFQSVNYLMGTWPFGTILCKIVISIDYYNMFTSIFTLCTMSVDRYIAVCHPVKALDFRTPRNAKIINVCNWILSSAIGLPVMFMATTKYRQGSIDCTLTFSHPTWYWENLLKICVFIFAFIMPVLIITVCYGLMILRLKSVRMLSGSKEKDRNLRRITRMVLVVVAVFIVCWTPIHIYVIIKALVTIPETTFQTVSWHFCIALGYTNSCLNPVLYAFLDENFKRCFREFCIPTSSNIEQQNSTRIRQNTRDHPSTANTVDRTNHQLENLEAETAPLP
Genome polyprotein, sequence (P29990 2492-3391 limits assumed): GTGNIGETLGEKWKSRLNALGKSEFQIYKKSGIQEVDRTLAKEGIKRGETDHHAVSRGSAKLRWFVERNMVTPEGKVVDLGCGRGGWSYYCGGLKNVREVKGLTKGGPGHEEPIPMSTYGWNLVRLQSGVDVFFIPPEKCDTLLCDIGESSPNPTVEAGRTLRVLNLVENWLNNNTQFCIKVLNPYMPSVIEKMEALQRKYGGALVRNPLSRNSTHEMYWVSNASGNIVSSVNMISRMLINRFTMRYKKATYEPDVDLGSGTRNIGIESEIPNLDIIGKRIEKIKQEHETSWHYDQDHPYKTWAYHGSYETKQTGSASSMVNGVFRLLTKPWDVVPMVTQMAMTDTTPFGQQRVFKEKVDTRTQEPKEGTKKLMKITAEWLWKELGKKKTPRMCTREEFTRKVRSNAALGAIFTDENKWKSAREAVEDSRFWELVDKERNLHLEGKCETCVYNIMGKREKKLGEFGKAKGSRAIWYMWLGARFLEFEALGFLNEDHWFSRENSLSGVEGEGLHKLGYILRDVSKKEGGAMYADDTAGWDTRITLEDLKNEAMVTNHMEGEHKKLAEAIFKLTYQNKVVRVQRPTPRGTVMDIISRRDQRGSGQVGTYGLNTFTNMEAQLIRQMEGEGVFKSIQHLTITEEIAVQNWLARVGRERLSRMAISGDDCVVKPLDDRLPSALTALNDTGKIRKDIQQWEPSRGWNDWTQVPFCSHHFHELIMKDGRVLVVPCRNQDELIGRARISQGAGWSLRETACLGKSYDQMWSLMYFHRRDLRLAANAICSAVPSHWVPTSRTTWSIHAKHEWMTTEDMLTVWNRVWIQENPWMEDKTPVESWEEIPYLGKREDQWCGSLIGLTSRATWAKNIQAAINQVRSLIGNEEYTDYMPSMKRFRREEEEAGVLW

EC50 (Beta-galactosidase): > 40 µM (inactive)
IC50 [4]: > 40 µM (not active)
Compound: CSc1cccc(N=C2C(=O)Nc3ccccc32)c1

EC50 (Beta-galactosidase): > 40 µM (inactive)
IC50 [4]: 36.4 µM (not active)
Compound: Cc1ccc(C(=O)NCC(=O)OCC(=O)c2ccc(C)c([N+](=O)[O-])c2)cc1

The remaining lines, values behind:

Compound: CCOC(=O)C1(CC2CCCCO2)CCN(Cc2cc(F)ccc2-n2cccn2)CC1 (stereo not given)
EC50 [1]: 0.473 µM (active)
EC50 [2]: > 92.5 µM (inactive)
EC50 (Mu-type opioid receptor): > 92.5 µM (inactive)
EC50 [3]: > 92.5 µM (inactive)

Compound: Cc1ccc(S(=O)(=O)N2[C@@H](c3ccc(Cl)c(Cl)c3)C(C(=O)O)=C[C@H]2CC2CCCC2)cc1
CC50 (Vero): > 40 µM (active)
IC50 (Genome polyprotein): 43.4 µM (active)
IC50 [5]: 6.21 µM (active)

Compound: OCC1(Cc2ccc(Cl)cc2)CCN(Cc2ccccc2F)CC1
EC50 [6]: 5.96 µM (active)
AC50 (Escherichia coli [7]): 21.9 µM (active)
AC50 (Escherichia coli [8]): 88.9 µM (active)

Compound: Cc1sc2ccccc2c1CC1=NCCN1
AC50 [9]: 35.5 µM (inconclusive)
